Consider one molecule from patent US4550021A (The Kitasato Institute, priority 1983, dated 1985).

Holding throughout (assay type): physicochemical
Series [1] can be described thus: Stability under heating.
Series [2] can be described thus: Solubility. The note with it: for Solubility in organic solvents: dichloromethane, chloroform, acetone.
Series [3] is described as follows: Nature (acid/base).

As to `CCC(=C/[C@H](C)C/C=C/C(C)=C/[C@@H](CO)C(=O)[C@@H](C)[C@H](O)[C@@H](C)C/C(C)=C/C(=O)O)/C=C/[C@@H]1OC(=O)C=C[C@@H]1C` [antibiotic 81-484], the stability under heating result in series [1] is listed as “stable under heating”. Further, the “Solubility in organic solvents” value in series [2] (diethyl ether, methanol, ethyl acetate, butyl acetate, benzene) is recorded as “soluble”; in series [2] (many types: methanol, ethanol, methyl isobutyl ketone), “soluble”. Also, the Solubility in hexane result in series [2] (hexane) is recorded as “insoluble”. For the same molecule, the Solubility in water result in series [2] (water) is given as “insoluble”. The Nature entry in series [3] was “acidic substance”.
